The source of these data is patent publication US20150065447A1, “SURVIVAL BENEFIT IN PATIENTS WITH SOLID TUMORS WITH ELEVATED C-REACTIVE PROTEIN LEVELS” (Incyte Corporation, priority 2013, published 2015).

Assay [1] addresses T1, human JAK1 (a.a. 837-1142) (Homo sapiens, UniProt P23458).
T1 construct: human JAK1 (a.a. 837-1142); His tag (N); made in house; host or cells: insect cells (baculovirus)
In words: In vitro JAK Kinase Assay (HTRF), JAK1. In kind it is biochemical. As to conditions: 1 mM ATP. The procedure: (§1) The catalytic activity of JAK1 and JAK2 was assayed by measuring the phosphorylation of a biotinylated peptide. The phosphorylated peptide was detected by homogenous time resolved fluorescence (HTRF). […] Reactions were carried out at room temperature for 1 hr and then stopped with 20 μL 45 mM EDTA, 300 nM SA-APC, 6 nM Eu-Py20 in assay buffer (Perkin Elmer, Boston, Mass.). Binding to the Europium labeled antibody took place for 40 minutes and HTRF signal was measured on a Fusion plate reader (Perkin Elmer, Boston, Mass.).

The target of assay [2] is T2, human JAK2 (a.a. 828-1132) (Homo sapiens, UniProt O60674).
T2 construct: JAK2 (a.a. 828-1132); His tag (N); made in house; host or cells: insect cells (baculovirus)
Briefly: In vitro JAK Kinase Assay (HTRF), JAK2 (for JAK2/JAK1 ratio). In kind it is biochemical. The following applies: ratio of IC50s, 1 mM ATP. As for the experimental part: as §1
On the technique in general: Time-resolved FRET reads energy transfer from a long-lived donor to a nearby acceptor.

Broadly, the IC50 is the point on the concentration scale where inhibition reaches its midpoint. Read a high IC50 as weaker potency.

T1 sequence (P23458 849-1154): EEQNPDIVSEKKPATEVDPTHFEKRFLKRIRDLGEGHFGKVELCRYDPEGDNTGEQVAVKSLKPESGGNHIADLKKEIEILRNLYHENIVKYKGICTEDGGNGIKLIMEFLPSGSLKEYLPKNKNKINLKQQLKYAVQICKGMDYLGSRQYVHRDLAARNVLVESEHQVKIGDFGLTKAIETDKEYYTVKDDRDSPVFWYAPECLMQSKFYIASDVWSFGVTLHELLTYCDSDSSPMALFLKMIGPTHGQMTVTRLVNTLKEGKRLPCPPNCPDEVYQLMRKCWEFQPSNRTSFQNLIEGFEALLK
T2 sequence (O60674 828-1132): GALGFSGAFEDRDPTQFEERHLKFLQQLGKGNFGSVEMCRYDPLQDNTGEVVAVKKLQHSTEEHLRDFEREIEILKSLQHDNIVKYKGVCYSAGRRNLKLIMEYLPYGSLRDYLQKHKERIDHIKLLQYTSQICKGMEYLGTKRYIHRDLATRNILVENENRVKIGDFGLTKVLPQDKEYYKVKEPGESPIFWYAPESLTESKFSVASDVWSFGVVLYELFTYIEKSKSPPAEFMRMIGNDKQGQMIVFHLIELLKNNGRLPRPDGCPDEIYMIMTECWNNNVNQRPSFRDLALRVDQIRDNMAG

`C[C@@H](O)CNCc1cc(OC2CCN([C@H]3C[C@](CC#N)(n4cc(-c5ncnc6[nH]ccc56)cn4)C3)CC2)nc(C(F)(F)F)c1` [Compound 24, {trans-3-(4-{[4-({[(2R)-2-hydroxypropyl]amino}methyl)-6-(trifluoromethyl)pyridin-2-yl]oxy}piperidin-1-yl)-1-[4-(7H-pyrrolo[2,3-d]pyrimidin-4-yl)-1H-pyrazol-1-yl]cyclobutyl}acetonitrile]: the IC50 in assay [1] was less than 10 nM. In addition, the JAK2/JAK1 in assay [2] was greater than 10.
The like results for `N#CCC1(n2cc(-c3ncnc4[nH]ccc34)cn2)CN([C@H]2CC[C@@H](Oc3cc(CN4CC[C@H](O)C4)cc(C(F)(F)F)n3)CC2)C1` [Compound 22, {1-(cis-4-{[4-{[(3S)-3-hydroxypyrrolidin-1-yl]methyl}-6-(trifluoromethyl)pyridin-2-yl]oxy}cyclohexyl)-3-[4-(7H-pyrrolo[2,3-d]pyrimidin-4-yl)-1H-pyrazol-1-yl]azetidin-3-yl}acetonitrile] were, in that order, less than 10 nM and greater than 10.
The like results for `N#CC[C@]1(n2cc(-c3ncnc4[nH]ccc34)cn2)C[C@H](N2CCC(Oc3cc(CN4CCC[C@@H]4CO)cc(C(F)(F)F)n3)CC2)C1` [Compound 13, {trans-3-(4-{[4-{[(2R)-2-(hydroxymethyl)pyrrolidin-1-yl]methyl}-6-(trifluoromethyl)pyridin-2-yl]oxy}piperidin-1-yl)-1-[4-(7H-pyrrolo[2,3-d]pyrimidin-4-yl)-1H-pyrazol-1-yl]cyclobutyl}acetonitrile] were, in that order, less than 10 nM and greater than 10.
As for `N#CCC(C1CCN(c2nc3cccnc3o2)C1)n1cc(-c2ncnc3[nH]ccc23)cn1` (stereo not drawn) [Compound 4, 3-(1-[1,3]oxazolo[5,4-b]pyridin-2-ylpyrrolidin-3-yl)-3-[4-(7H-pyrrolo[2,3-d]pyrimidin-4-yl)-1H-pyrazol-1-yl]propanenitrile], the IC50 in assay [1] was less than 10 nM. In assay [2], the JAK2/JAK1 is greater than 10.
Consider `N#CCC1(n2cc(-c3ncnc4[nH]ccc34)cn2)CN(C2CCN(C(=O)c3ccnc(C(F)(F)F)c3F)CC2)C1` [Compound 7, {l-{l-[3-Fluoro-2-(trifluoromethyl)isonicotinoyl]piperidin-4-yl}-3-[4-(7H-pyrrolo[2,3-d]pyrimidin-4-yl)-1H-pyrazol-1-yl]azetidin-3-yl}acetonitrile], for which the IC50 in assay [1] is less than 10 nM. For the same compound, the JAK2/JAK1 in assay [2] is recorded as greater than 10.
The like results for `N#CCC1(n2cc(-c3ncnc4[nH]ccc34)cn2)CN([C@H]2CC[C@@H](Oc3cc(CCO)nc(C(F)(F)F)n3)CC2)C1` [Compound 18, (l-(cis-4-{[6-(2-hydroxyethyl)-2-(trifluoromethyl)pyrimidin-4-yl]oxy}cyclohexyl)-3-[4-(7H-pyrrolo[2,3-d]pyrimidin-4-yl)-1H-pyrazol-1-yl]azetidin-3-yl}acetonitrile] were, in that order, less than 10 nM and greater than 10.
In assay [1], `C[C@H](NC(=O)c1cc(F)c(N2CC(CC#N)(n3cc(-c4ncnc5[nH]ccc45)cn3)C2)cc1F)C(F)(F)F` [Compound 16, 4-{3-(cyanomethyl)-3-[4-(7H-pyrrolo[2,3-d]pyrimidin-4-yl)-1H-pyrazol-1-yl]azetidin-1-yl}-2,5-difluoro-N-[(1S)-2,2,2-trifluoro-1-methylethyl]benzamide] showed an IC50 of less than 10 nM. Besides, the JAK2/JAK1 in assay [2] is listed as greater than 10.
For `N#CC[C@]1(n2cc(-c3ncnc4[nH]ccc34)cn2)C[C@H](N2CCC(Oc3cc(CN4CC(O)C4)cc(C(F)(F)F)n3)CC2)C1` [Compound 11, {trans-3-(4-{[4-[(3-hydroxyazetidin-1-yl)methyl]-6-(trifluoromethyl)pyridin-2-yl]oxy}piperidin-1-yl)-1-[4-(7H-pyrrolo[2,3-d]pyrimidin-4-yl)-1H-pyrazol-1-yl]cyclobutyl}acetonitrile] the same measures were less than 10 nM and greater than 10.
Turning to `N#CCC1(n2cc(-c3ncnc4[nH]ccc34)cn2)CN([C@H]2CC[C@@H](Oc3cc(CN4CC[C@@H](O)C4)cc(C(F)(F)F)n3)CC2)C1` [Compound 21, {1-(cis-4-{[4-{[(3R)-3-hydroxypyrrolidin-1-yl]methyl}-6-(trifluoromethyl)pyridin-2-yl]oxy}cyclohexyl)-3-[4-(7H-pyrrolo[2,3-d]pyrimidin-4-yl)-1H-pyrazol-1-yl]azetidin-3-yl}acetonitrile], the IC50 in assay [1] is less than 10 nM. For the same compound, in assay [2], the JAK2/JAK1 was greater than 10.
In the case of `N#CCC1(n2cc(-c3ncnc4[nH]ccc34)cn2)CN(C2CCN(C(=O)c3ccnc(C(F)(F)F)n3)CC2)C1` [Compound 9, [3-[4-(7H-pyrrolo[2,3-d]pyrimidin-4-yl)-1H-pyrazol-1-yl]-1-(l-{[2-(trifluoromethyl)pyrimidin-4-yl]carbonyl}piperidin-4-yl)azetidin-3-yl]acetonitrile], the IC50 in assay [1] is less than 10 nM. Also, in assay [2], the JAK2/JAK1 is on record as greater than 10.
In assay [1], `N#CC[C@]1(n2cc(-c3ncnc4[nH]ccc34)cn2)C[C@H](N2CCC(Oc3cc(CN4CCC[C@H]4CO)cc(C(F)(F)F)n3)CC2)C1` [Compound 12, {trans-3-(4-{[4-{[(2S)-2-(hydroxymethyl)pyrrolidin-1-yl]methyl}-6-(trifluoromethyl)pyridin-2-yl]oxy}piperidin-1-yl)-1-[4-(7H-pyrrolo[2,3-d]pyrimidin-4-yl)-1H-pyrazol-1-yl]cyclobutyl}acetonitrile] registered an IC50 of less than 10 nM. Besides, the JAK2/JAK1 in assay [2] was greater than 10.
`N#CCC(CN1CCN(C(=O)c2ccc(C#N)cc2F)CC1)n1ccc(-c2ncnc3[nH]ccc23)c1` (stereo not drawn) [Compound 6, 4-[(4-{3-cyano-2-[3-(7H-pyrrolo[2,3-d]pyrimidin-4-yl)-1H-pyrrol-1-yl]propyl}piperazin-l-yl)carbonyl]-3-fluorobenzonitrile]: the IC50 in assay [1] is less than 10 nM. Also, in assay [2], the JAK2/JAK1 is on record as greater than 10.
